According to US20180186796A1, “COMPOUNDS AND USES THEREOF” (LEAD DISCOVERY SIENA S.R.L., priority 2014, published 2018):
Converted amounts (≈) assume the structure as drawn.

What was measured:
U87 cells = assay: Low density growth assay; type: cell-based, human; conditions: 4Gy plus 1 μM or 10 μM Si306, 15 days
Procedure: U87 cells capacity for growth at clonal density, was evaluated by plating cells at density of 10 cells/cm^2 in 10% fetal bovine supplemented DMEM. After 2 weeks of culture, adherent cells were fixed with cold methanol, washed with PBS/BSA and air-dried. Adherent cells were stained with 0.5% crystal violet for 15 minutes at room temperature. The stained colonies were photomicrographed and analyzed by number and size with the public domain software ImageJ (by Wayne Rasband, http://rsb.info.nih.gov/ij/). Mean and SD values of at least three different experiments are shown.

Recombinant human Abl = molecular target: T1, Recombinant human Abl (Homo sapiens, UniProt P00519); assay: Enzymatic assay on isolated Abl; type: biochemical; conditions: mean of at least two experiments
T1 construct: purchased Upstate
Procedure: Recombinant human Abl was purchased from Upstate.
Activity was measured in a filter binding assay using an Abl specific peptide substrate (Abtide, Upstate).

human fibroblast wi38 = assay: TGF-beta induced myofibroblast differentiation, Western blot; type: cell-based; conditions: Si306 1 μM
Procedure: FIG. 17. Western blot analysis of PDGFR-beta and alpha-SMA expression.
Total cell lysates were obtained by incubating cells in a lysis buffer containing 1% triton, 0.1% SDS, 2 mM CaCl2, 10 mg/ml orthovanadate, and 1× protease inhibitors cocktail (Sigma, St. Louis, […]., USA). Protein content was determined using the Protein Assay Kit 2 (Bio-Rad Laboratories, Hercules, Calif., USA). Sixty micrograms of proteins were electrophoresed in 10% SDS-polyacrylamide gel. After electrophoresis gels were placed onto Trans-Blot Turbo mini nitrocellulose transfer pack and transferred using Trans-Bolt Turbo Transfer System (Bio-Rad Laboratories, Hercules, Calif., USA). The membrane was incubated with 1 μg/ml primary antibody and then with appropriate horseradish peroxidase-conjugated secondary antibodies. Primary antibodies β-actin, PDGFR-beta, alpha-SMA were purchased from Cell Signaling Technology; Protein bands were visualized using a chemiluminescent detection system (Thermo Scientific, Rockford, Ill., USA) and signals were digitally acquired by Chemidoc XRS system (Bio-Rad Laboratories).

T1 sequence (P00519 whole entry): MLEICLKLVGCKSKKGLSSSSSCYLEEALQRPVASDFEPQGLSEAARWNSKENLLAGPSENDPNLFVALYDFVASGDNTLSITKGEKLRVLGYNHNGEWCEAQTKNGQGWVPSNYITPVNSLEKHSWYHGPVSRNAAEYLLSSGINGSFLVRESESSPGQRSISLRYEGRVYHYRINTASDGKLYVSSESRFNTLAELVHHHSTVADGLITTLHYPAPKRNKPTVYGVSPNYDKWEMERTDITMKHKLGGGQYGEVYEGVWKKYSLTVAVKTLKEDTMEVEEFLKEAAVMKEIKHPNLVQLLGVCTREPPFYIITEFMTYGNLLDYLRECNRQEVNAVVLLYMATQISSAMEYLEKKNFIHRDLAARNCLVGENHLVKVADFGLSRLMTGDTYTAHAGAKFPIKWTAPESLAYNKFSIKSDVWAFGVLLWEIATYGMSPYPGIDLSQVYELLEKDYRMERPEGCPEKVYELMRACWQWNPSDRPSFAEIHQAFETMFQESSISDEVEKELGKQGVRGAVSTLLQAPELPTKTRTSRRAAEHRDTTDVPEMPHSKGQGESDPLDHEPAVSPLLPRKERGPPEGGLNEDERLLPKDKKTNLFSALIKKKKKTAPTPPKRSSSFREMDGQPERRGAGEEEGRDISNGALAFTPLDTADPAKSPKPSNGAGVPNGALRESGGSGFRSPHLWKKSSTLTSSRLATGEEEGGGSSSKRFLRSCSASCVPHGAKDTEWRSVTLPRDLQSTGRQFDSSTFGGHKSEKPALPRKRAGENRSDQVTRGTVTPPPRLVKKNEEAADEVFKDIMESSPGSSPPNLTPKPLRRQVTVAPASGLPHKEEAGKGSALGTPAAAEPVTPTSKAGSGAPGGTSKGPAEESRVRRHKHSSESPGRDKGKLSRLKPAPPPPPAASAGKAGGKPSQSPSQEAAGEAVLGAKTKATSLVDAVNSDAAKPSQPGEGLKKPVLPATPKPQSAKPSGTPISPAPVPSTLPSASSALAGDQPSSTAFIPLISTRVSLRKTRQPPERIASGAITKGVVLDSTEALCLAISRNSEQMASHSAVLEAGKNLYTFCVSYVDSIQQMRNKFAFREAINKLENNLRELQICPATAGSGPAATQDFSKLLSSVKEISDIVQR
Procedure for Water solubility assay: Each solid compound (1 mg) was added to 1 mL of water. […] The suspensions were filtered through a 0.45 μm nylon filter (Acrodisc), and the solubilized compound determined by LC-MS-MS assay. For each compound the determination was performed in triplicate. […] The flow rate was 0.2 mL min-^−1 and injection volume was 5 μL. The instrument operated in positive mode and parameters were: detector 1850 V, drying gas pressure 25.0 psi, desolvation temperature 300.0° C., nebulizing gas 40.0 psi, needle 5000 V and shield 600 V. Nitrogen was used as nebulizer gas and drying gas.
Solid compound (1 mg) was added to 1 mL of water. […] The suspensions were filtered through a 0.45-μm nylon filter (Acrodisc), and the solubilised compound determined by LC-UV-MS assay. The determination was performed in triplicate.
Chromatographic analysis was performed with the method above reported and quantification of compounds was made by comparison with apposite calibration curves realized with standard solutions in methanol.

## ClC(Cn1ncc2c(Nc3cccc(Br)c3)nc(SCCN3CCOCC3)nc21)c1ccccc1 (stereo not drawn) [Si306, N-(3-Bromophenyl)-1-(2-chloro-2-phenylethyl)-6-[(2-morpholin-4-ylethyl)thio]-1H-pyrazolo[3,4-d]pyrimidin-4-amine]
U87 cells
  number of colonies, combination with radiotherapy: reduced significantly the number of colonies
Water solubility assay; Table 6
  H2O Solubility: 3.7 µg/mL
Water solubility assay; Table 8, 20° C., 24 h
  H2O Sol.: 3.70 µg/mL
Water solubility assay; water, 20 °C, thermodynamic from solid
  solubility at 24 h: 6.61 µM (≈ 3.79 µg/mL)
Recombinant human Abl
  Ki: 0.12 µM
Human fibroblast wi38
  expression of PDGFR and alpha-SMA downstream of TGF-beta: able to block the expression of PDGFR and alpha-SMA
